The values below come from article PMC6934184, “Selective DNA-PKcs inhibition extends the therapeutic index of localized radiotherapy and chemotherapy” (The Journal of Clinical Investigation, 2019).

The target of the experiment is T1, NUAK1 (ARK5) (Homo sapiens, UniProt O60285).
T1 construct: purchased Thermo Fisher Scientific (Life Technologies) SelectScreen
Briefly: SelectScreen Adapta. Format: biochemical. The method, then: The in vitro kinase selectivity of NU5455 was determined using the SelectScreen Broad Assay Panel (Thermo Fisher Scientific) involving activity and binding assays (Supplemental Table 1). […] Class IA PI3Ks were measured using the p85α subunit.
Kinase [ATP] % Assay Kinase [ATP] % Assay Kinase [ATP] % Assay Kinase [ATP] % Assay […]
SNF1LK2 Km app 26.6 Z MINK1 Km app 4.6 Z NUAK1 (ARK5) Km app 1.2 A AMPK (A2/B2/G2) n/a -2.6 L […]
SGK (SGK1) Km app 8.5 Z MAP4K2 (GCK) Km app 2.7 Z TLK2 n/a -0.3 L STK38 (NDR) n/a -5.9 L
MERTK (cMER) Km app 8.3 Z CDK2/cyclin A Km app 2.7 Z TGFBR1 (ALK5) n/a -0.4 L MATK (HYL) Km app -6.3 Z
FYN Km app 8.3 Z EPHA1 Km app 2.7 Z CLK3 Km app -0.5 Z ABL1 E255K Km app -6.6 Z
TEC n/a 8.1 L CDK2/cyclin E1 n/a 2.7 L MAP3K14 (NIK) n/a -0.5 L STK17A (DRAK1) n/a -6.6 L
KIT V654A n/a 8.1 L TESK2 n/a 2.7 L AKT3 (PKB gamma) Km app -0.5 Z JAK2 JH1 JH2 Km app -6.7 Z
ROS1 Km app 8.0 Z SPHK1 Km app 2.7 A MAP3K9 (MLK1) Km app -0.5 Z PRKACB (PRKAC beta) n/a -6.8 L
FGFR3 K650E Km app 7.9 Z AMPK A2/B1/G1 Km app 2.6 Z IKBKB (IKK beta) Km app -0.6 Z PDGFRA (PDGFR alpha) Km app -6.8 Z
RAF1 (cRAF) Y340D Y341D 100 7.9 Z DYRK3 Km app 2.6 Z CAMK2A (CaMKII alpha) Km app -0.6 Z NEK9 Km app -7.2 Z
PI4KA (PI4K alpha) 10 7.8 A CSNK1D (CK1 delta) Km app 2.6 Z PRKCB1 (PKC beta I) Km app -0.7 Z PDK1 Km app -7.3 Z
HIPK2 Km app 7.8 Z ACVR2A n/a 2.5 L TTK n/a -0.7 L RPS6KB1 (p70S6K) Km app -7.8 Z […]

T1 sequence (O60285 whole entry): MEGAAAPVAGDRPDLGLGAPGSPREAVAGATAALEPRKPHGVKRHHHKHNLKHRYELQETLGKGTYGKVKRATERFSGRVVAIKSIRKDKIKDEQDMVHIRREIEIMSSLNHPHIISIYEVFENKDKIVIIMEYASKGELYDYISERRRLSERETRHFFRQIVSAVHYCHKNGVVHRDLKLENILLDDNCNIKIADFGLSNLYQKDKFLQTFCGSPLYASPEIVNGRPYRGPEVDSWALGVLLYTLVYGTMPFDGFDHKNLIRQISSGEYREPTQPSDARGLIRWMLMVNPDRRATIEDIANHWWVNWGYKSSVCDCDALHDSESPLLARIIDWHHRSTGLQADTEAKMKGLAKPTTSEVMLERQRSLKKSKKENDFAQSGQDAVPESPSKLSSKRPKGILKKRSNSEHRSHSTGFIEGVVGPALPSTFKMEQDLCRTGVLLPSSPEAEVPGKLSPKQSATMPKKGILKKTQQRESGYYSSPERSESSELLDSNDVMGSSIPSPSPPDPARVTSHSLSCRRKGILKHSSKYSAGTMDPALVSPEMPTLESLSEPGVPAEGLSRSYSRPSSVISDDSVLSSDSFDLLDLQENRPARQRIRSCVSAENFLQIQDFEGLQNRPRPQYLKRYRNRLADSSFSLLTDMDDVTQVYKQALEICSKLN

As usually defined, the inhibition is the relative decrease from the control value, in per cent. Read a high inhibition as a strong effect. Compound `CN(C(=O)CN1CCOCC1)c1ccc2sc3c(-c4cccc5c(=O)cc(N6CC7CCC(C6)O7)oc45)cccc3c2c1` [NU5455] displayed an inhibition at 1 µM of 1.2%.
